Measured values published in the METLIN SMRT retention time set (Domingo-Almenara et al. 2019).

Experiment: gradient 5% acetonitrile 3 min, to 50% in 2 min, to 85% in 15 min, held 3 min, 100 µL/min
Settings: column: Zorbax Extend-C18 2.1 x 50 mm; eluents: water / acetonitrile, 0.1% formic acid
How it was run: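 Data were gathered over 3 months by HPLC coupled to a quadrupole time-of-flight mass spectrometer, operated in positive and negative ionization mode. Mixtures of ~100 pure standards ran on a Zorbax Extend-C18 column (2.1 × 50 mm, 1.8 μm) at 100 μL/min, with water and acetonitrile each containing 0.1% formic acid and dead and dwell volumes of 40 μL and 900 μL. Retention time was read from adduct peaks picked by computer and checked manually.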

| RP-LC retention time [s] | Structure (SMILES) |
| --- | --- |
| 872 | O=C(Nc1ccccc1)N1CCC(Oc2ccccc2)C1 (centres undefined) |
| 706 | Cc1c(-c2noc(C(=O)NCCN3CCC(C)CC3)n2)oc2ccccc12 |
| 888 | COc1ccccc1-c1nc2nccc(-c3ccc4c(c3)OCCCO4)n2n1 |
| 532 | COCc1nc2ccccc2n1CC(=O)NCC1CCCO1 (centres undefined) |
| 806 | O=C(N[C@H](Cc1ccccc1)C(=O)NCc1cscn1)c1cccc(Cl)c1 |
| 873 | O=C(c1ccccc1)N1CCN(C(=O)c2nnn3c2COC(c2ccc(Cl)cc2)C3)CC1 (centres undefined) |
| 903 | O=C(Cn1nc(C(=O)N2CCCC2)c2ccccc21)Nc1cccc(Br)c1 |
| 685 | CCN1CCCC1CNC(=O)CCc1nc(-c2ccc(N3CCCC3)cc2)no1 (centres undefined) |
| 781 | COC(=O)c1cc(S(=O)(=O)N2CCCC2C(=O)NCc2ccccc2)cn1C (centres undefined) |
| 792 | O=C(NCCn1nnc2cc(C(=O)N3CCCC3)ccc21)Nc1ccc(Cl)cc1 |
| 922 | COc1cccc(C(=O)NC2(C(F)(F)F)C(=O)N(CC3CCCO3)C3=C2C(=O)CC(C)(C)C3)c1 (centres undefined) |
| 991 | O=C(c1ccc(OC(F)(F)F)cc1)N1CCN(c2cc(-c3ccc(Cl)cc3)[nH]n2)CC1 |
| 983 | COc1ccc(-c2ncc3c(n2)CCN(C(=O)c2ccccc2C(F)(F)F)C3)cc1 |
| 897 | CC(C)NC(=O)c1ccc(OCC2CCN(C(=O)C3(c4ccccc4)CC3)CC2)cc1 |
| 911 | CCCNC(=O)N(CC(=O)N1CCc2sccc2C1COc1ccccc1)CC1CCCO1 (centres undefined) |
| 558 | Cc1nn(C)c(C)c1CCCN(C)C(=O)c1cccc(N2CCNC(c3ccccc3)C2)n1 (centres undefined) |

| RP-LC retention time [s] | Structure (SMILES) |
| --- | --- |
| 857 | CCOc1ccccc1NC(=O)Cn1cccc(S(=O)(=O)N2CCC(C)CC2)c1=O |
| 548 | CCc1cc(N2CCN(C(=O)c3ccc(F)cc3)CC2)nc2nncn12 |
| 979 | O=C(Cn1c(=O)cc(-c2nc(C3CC3)no2)c2ccccc21)NCc1cccc(Cl)c1 |
| 609 | O=C(NCc1ccc2c(c1)OCO2)C1CCCN(c2ccc(N3CCOCC3)nn2)C1 (centres undefined) |
| 786 | COC(=O)c1ccsc1NC(=O)C1COCC(=O)N1Cc1ccccc1 (centres undefined) |
| 638 | O=C(Nc1ccccc1)c1nnc(CCCC(=O)N2CCN(c3ccccn3)CC2)s1 |
| 1000 | O=C(Nc1nc(-c2ccc(F)cc2)cs1)c1c(-c2ccccc2)nc2n1CCS2(=O)=O |
| 872 | CCc1ccc(-n2nc(N3CCCC(C(=O)NCc4ccc(OC)cc4OC)C3)ccc2=O)cc1 (centres undefined) |
| 777 | O=C(NCc1ccccc1OC(F)(F)F)c1ccc(N2CCOCC2)nn1 |
| 809 | COc1ccccc1CNC(=O)c1cc(C)nn1-c1ccccc1 |
| 649 | O=C(CSc1nc2ncccc2[nH]1)Nc1ccccc1C(F)(F)F |
| 576 | CCN(C(=O)Nc1ccccc1C(F)(F)F)c1nc(-c2ccc(C)cc2)cs1 |
| 786 | O=C(Nc1nnc(C2CC(=O)N(c3ccc(Cl)cc3)C2)o1)c1cccc(F)c1 (centres undefined) |
| 736 | Cc1cc(=O)n(CC(=O)Nc2cc(Cl)ccc2C)c(N2CCOCC2)n1 |
| 757 | CCOc1ccccc1CNC(=O)C1CCN(S(=O)(=O)c2ccc3c(c2)NC(=O)CO3)CC1 |
| 653 | Fc1ccc(-c2noc(CCc3nnc4ccc(N5CCN(C6CCCCC6)CC5)nn34)n2)cc1 |

Further lines, the molecule ahead of its results:

| Structure (SMILES) | RP-LC retention time [s] |
| --- | --- |
| COc1ccc(N2C(=O)C3(CCCCC3)C2C(=O)N(C)C)cc1 (centres undefined) | 750 |
| CCS(=O)(=O)N1CCc2ccc(NC(=O)c3cccs3)cc2C1 | 747 |
| CCCNC(=O)c1cc2c(-c3cccs3)nn(-c3ccccc3)c2n1CC | 1100 |
| CCc1nc(-c2csc(S(=O)(=O)N3CCCC(C(=O)NCc4cccnc4)C3)c2)no1 (centres undefined) | 660 |
| Fc1cc(F)cc(Cn2cccc2-c2nc(-c3ccncc3)no2)c1 | 1110 |
| CCc1c(C(=O)O)nnn1-c1ccc(C)c(F)c1 | 744 |
| CCOC(=O)CCC(=O)Nc1ncc(C#N)s1 | 667 |
| O=C(COc1ccccc1)N1CCN(Cc2noc3ccccc23)CC1 | 708 |
| Cc1ccccc1C1CCCN1C(=O)c1c(Cl)cnn1C (centres undefined) | 892 |
| Cc1nnc(-c2c(S(=O)(=O)NC3CCCCCC3)c(C)n(C)c2C)o1 | 900 |
| CCCNC(=O)NCc1nc(-c2ccc(Cl)cc2)no1 | 806 |
| O=S(=O)(NCc1nc(-c2ccc(-c3csc(C4CC4)n3)cc2)no1)c1ccc(Cl)cc1 | 1190 |
| Cc1ccc(S(=O)(=O)Nc2ccc(-c3cn4cccc(C)c4n3)cc2)cc1C | 625 |
| COc1cc2c(c(O)c1OC)-c1c(cc(OC)c(OC)c1OC)CC(C)C(C)C2 (centres undefined) | 1080 |
| COc1ccc(CC(=O)N2CCCC2c2cc(C(C)C)on2)cc1OC (centres undefined) | 800 |
| Cc1nc(-c2noc(-c3ccccc3)n2)cn1CC(=O)Nc1ccc(F)c(Cl)c1 | 917 |
| COc1ccc(CN2CCC3(CCC3O)CC2)cc1OC (centres undefined) | 562 |
| Cc1cc(N2CCCC2)n2nc(CN3CCN(c4ccc(F)cc4)CC3)nc2n1 | 634 |
| CC1CCN(S(=O)(=O)c2ccc(-c3nnc(C4CC4)o3)o2)CC1 | 933 |

| Structure (SMILES) | RP-LC retention time [s] |
| --- | --- |
| Cc1cccc(C(=O)Nc2ccc3c(c2)Sc2ncccc2C(=O)N3C)c1 | 809 |
| Cc1cccc(-c2noc(C3CCCN3S(=O)(=O)c3ccc(C(C)C)cc3)n2)c1 (centres undefined) | 1330 |
| COC(=O)c1cc(OCC(=O)Nc2ccc(OC)cc2)c2cc(OC)ccc2n1 | 775 |
| CC(=O)NCCc1csc(C2CCN(C(=O)C3(c4ccccc4)CC3)CC2)n1 | 651 |
| O=C(Cn1nc2c(Oc3cccc(F)c3)nccn2c1=O)Nc1ccccc1 | 810 |
| Cc1c(C(=O)NCC(C)C)cnn1-c1ccc(-c2nc(C(C)(C)C)no2)cn1 | 1110 |
| CCOC(=O)C1C(=O)NC(SC)=C(C#N)C1c1ccccc1[N+](=O)[O-] (centres undefined) | 778 |
| Cc1ccccc1Cn1c(C)c(CNCCc2ccco2)c(C(=O)O)c1C | 738 |
| CCCN1C(=O)COc2ccc(-c3csc(NC(=O)c4ccccc4C)n3)cc21 | 1060 |
| CCN1C(=O)COc2ccc(-c3nc(NC(=O)c4ccncc4)sc3C)cc21 | 768 |
| CC(=O)N1CCc2cc(N3CC(C(=O)Nc4cccc(C)c4)CC3=O)ccc21 (centres undefined) | 712 |
| O=C(Nc1cccc(Cl)c1)c1c(O)c2cccnc2n(-c2ccccc2)c1=O | 1340 |
| Cc1ccc(OCC(=O)N(C)CC2(C)CCOCC2)cc1 | 799 |
| COC(=O)CNC(=O)Nc1ncc(-c2ccc(OC)cc2)n1C | 607 |
| CC1Oc2ccc(-c3csc(NC(=O)C4CCCCC4)n3)cc2N(C)C1=O (centres undefined) | 1040 |
| CCN1CCN(c2c(S(=O)(=O)c3ccccc3)cnc3cc(OC)c(OC)cc23)CC1 | 623 |
| Cn1nc(C(=O)NCC2(C)CCOCC2)c2ccccc21 | 763 |
| Cc1ccc2ccc3ccc(C)nc3c2n1 | 589 |
| CN(C)CCNC(=O)c1cc2n(n1)CC(C)(C(=O)NCc1ccc(F)cc1)N(C)C2=O (centres undefined) | 576 |

| Structure (SMILES) | RP-LC retention time [s] |
| --- | --- |
| O=C(c1ccc(-c2cncnc2)nc1)N1CCN(c2ccc(Cl)cc2)CC1 | 796 |
| CCCCOc1ccc(NC(=O)c2cc(=O)c3ccc(C)c(C)c3o2)c2cccnc12 | 788 |
| O=C(NCc1ccccn1)C1c2ccccc2C(=O)N(C2CCCC2)C1c1cccs1 (centres undefined) | 709 |
| COc1ccc(-c2ncc3c(n2)CCN(S(=O)(=O)c2cccs2)C3)cc1 | 997 |
| O=C(NCc1ccc(Cl)cc1)NCC(O)Cc1ccccc1 (centres undefined) | 721 |
| CCC(C(=O)NC1CC1)n1nc(C)c2c(C)n(-c3ccccc3)nc2c1=O (centres undefined) | 735 |
| COc1ccc(-c2cc3n(n2)CCCN(C(=O)c2ccc4nc[nH]c4c2)C3)cc1 | 614 |
| Cc1ccc(Cn2c(=O)n(CCNC(=O)C3CCCO3)c3ncccc32)cc1 (centres undefined) | 726 |
| CCCNC(=O)C1CCCN(c2nc3ncn(CC(=O)Nc4ccc(OCC)cc4)c(=O)c3s2)C1 (centres undefined) | 720 |
| COc1cc(Cl)ccc1C(=O)N1CCC(COc2ccc(C(=O)NC(C)C)cc2)CC1 | 801 |
| COc1ccc(C2CC(=O)N(c3cccc(OC)c3)C(=O)C2)cc1 | 860 |
| COC(=O)c1ccccc1Nc1c(-c2ccc(OC)c(OC)c2)nc2cnccn12 | 732 |
| O=C(CC1CCCC1)N1CCCC(c2nn[nH]n2)C1 (centres undefined) | 660 |
| CCCCn1c(CN(C)C(=O)c2ccco2)nc2ccccc21 | 648 |
| COc1cc(NC(=O)C2CCN(c3c(C(=O)N4CCC(C)CC4)cnc4snc(C)c34)CC2)cc(OC)c1 | 1010 |
| CCN1C(=O)C(CC(=O)NCCCN(C)C)Sc2ncccc21 (centres undefined) | 559 |
| CC(C)CCNC(=O)c1ccc2nc(CCc3ccc(NC(=O)C(C)C)cc3)[nH]c2c1 | 676 |
| COc1ccc(-c2noc(Cn3c(=O)n(C(C)C)c(=O)c4ccccc43)n2)cc1OC | 1000 |
| O=C(c1ccsc1)N1CCN(c2ncnc3c2CCC3)CC1 | 557 |
